# Source: patent US12441762B2, “Hepatitis c virus NS3/4A protease inhibitors” (priority 2019, dated 2025)
# Experiments:
# Assay in all cases: biochemical
# [1] = biological target: T1, HCV NS3/4A protease D168A variant (Hepatitis C virus genotype 1a, UniProt P27958, C1185S/D1194A); format: biochemical
# T1 construct: His-tag (cleaved yes); made in house; host or cells: Escherichia coli BL21(DE3), PET28a vector
# Method in brief: (§1)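 Inhibitors pre-incubated 1 h at room temperature with 2 nM NS3/4A protease (GT1a C159S or D168A) in 50 mM Tris, 5% glycerol, 10 mM DTT, 0.6 mM LDAO, 4% DMSO, pH 7.5. Km from global Michaelis-Menten fit of inner-filter-corrected initial velocities; three independent data sets per inhibitor and construct.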
# [2] = biological target: T2, wild-type HCV NS3/4A protease (GT1a) (Hepatitis C virus genotype 1a, UniProt P27958, C1185S); format: biochemical
# T2 construct: His-tag (cleaved yes); made in house; host or cells: Escherichia coli BL21(DE3), PET28a vector
# Method in brief: as §1
# HCV NS3/4A protease GT3 = HCV NS3/4A protease GT3 (Hepatitis C virus genotype 3a, UniProt Q81495)
# Chain of HCV NS3/4A protease GT3 (Q81495 1033-1214): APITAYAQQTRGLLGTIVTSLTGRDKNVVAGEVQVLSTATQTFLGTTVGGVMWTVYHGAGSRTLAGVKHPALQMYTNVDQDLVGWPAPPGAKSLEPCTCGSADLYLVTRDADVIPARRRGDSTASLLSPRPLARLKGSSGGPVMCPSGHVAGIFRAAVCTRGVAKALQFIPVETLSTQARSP
# Chain of HCV NS3/4A protease GT3 (Q81495 1664-1717): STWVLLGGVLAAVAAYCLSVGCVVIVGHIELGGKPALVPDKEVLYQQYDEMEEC
# T1 sequence (P27958 1027-1208 C1185S/D1194A): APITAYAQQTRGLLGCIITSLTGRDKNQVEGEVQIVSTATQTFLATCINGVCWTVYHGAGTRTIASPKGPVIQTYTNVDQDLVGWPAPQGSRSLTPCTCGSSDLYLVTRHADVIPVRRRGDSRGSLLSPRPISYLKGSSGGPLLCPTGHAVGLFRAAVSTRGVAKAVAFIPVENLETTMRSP
# T2 sequence (P27958 1027-1208 C1185S): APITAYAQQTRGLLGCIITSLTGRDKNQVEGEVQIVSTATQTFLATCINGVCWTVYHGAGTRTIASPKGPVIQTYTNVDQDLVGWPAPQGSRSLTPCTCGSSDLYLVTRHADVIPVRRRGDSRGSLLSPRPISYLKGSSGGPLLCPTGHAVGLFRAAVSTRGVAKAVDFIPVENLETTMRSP
Compound,Ki [1] [nM],Ki [2] [nM],Ki (HCV NS3/4A protease GT3) [nM]
"COc1ccc2nc(C)c(O[C@@H]3C[C@H]4C(=O)N[C@]5(C(=O)NS(=O)(=O)C6(C)CC6)C[C@H]5/C=C\CCCCC[C@H](NC(=O)O[C@H](C)C(F)(F)F)C(=O)N4C3)nc2c1 [NR01-145, (R)-1,1,1-Trifluoropropan-2-yl ((2R,6S,13aS,14aR,16aS,Z)-2-((7-methoxy-3-methylquinoxalin-2-yl)oxy)-14a-(((1-methylcyclopropyl)sulfonyl)carbamoyl)-5,16-dioxo-1,2,3,5,6,7,8,9,10,11,13a,14,14a,15,16,16a-hexadecahydrocyclopropa[e]pyrrolo[1,2-a][1,4]diazacyclopentadecin-6-yl)carbamate]",8 ± 1,1.1 ± 0.1,122 ± 11
"COc1ccc2nc(C(F)(F)F)c(O[C@@H]3C[C@H]4C(=O)N[C@]5(C(=O)NS(=O)(=O)C6(C)CC6)C[C@H]5/C=C\CCCCC[C@H](NC(=O)O[C@@H](C)C(C)C)C(=O)N4C3)nc2c1 [NR01-101, (S)-3-Methylbutan-2-yl ((2R,6S,13aS,14aR,16aS,Z)-2-((7-methoxy-3-(trifluoromethyl)quinoxalin-2-yl)oxy)-14a-(((1-methylcyclopropyl)sulfonyl)carbamoyl)-5,16-dioxo-1,2,3,5,6,7,8,9,10,11,13a,14,14a,15,16,16a-hexadecahydrocyclopropa [e]pyrrolo[1,2-a][1,4]diazacyclopentadecin-6-yl)carbamate]",26.2 ± 2.3,6.1 ± 0.57,447 ± 25
"COc1ccc2nc(C)c(O[C@@H]3C[C@H]4C(=O)N[C@]5(C(=O)NS(=O)(=O)C6(C)CC6)C[C@H]5/C=C\CCCCC[C@H](NC(=O)O[C@@H]5CCC[C@H]5F)C(=O)N4C3)nc2c1 [NR02-08, (1R,2R)-2-Fluorocyclopentyl ((2R,6S,13aS,14aR,16aS,Z)-2-((7-methoxy-3-methylquinoxalin-2-yl)oxy)-14a-(((1-methylcyclopropyl)sulfonyl)carbamoyl)-5,16-dioxo-1,2,3,5,6,7,8,9,10,11,13a,14,14a,15,16,16a-hexadecahydrocyclopropa[e]pyrrolo [1,2-a][1,4]diazacyclopentadecin-6-yl)carbamate]",16 ± 1,2.3 ± 0.2,216 ± 32
"COc1ccc2nc(C(F)(F)F)c(O[C@@H]3C[C@H]4C(=O)N[C@]5(C(=O)NS(=O)(=O)C6(C)CC6)C[C@H]5/C=C\CCCCC[C@H](NC(=O)OC5(C(F)(F)F)CCCC5)C(=O)N4C3)nc2c1 [NR04-01, 1-(Trifluoromethyl)cyclopentyl ((2R,6S,13aS,14aR,16aS,Z)-2-((7-methoxy-3-(trifluoromethyl)quinoxalin-2-yl)oxy)-14a-(((1-methylcyclopropyl)sulfonyl)carbamoyl)-5,16-dioxo-1,2,3,5,6,7,8,9,10,11,13a,14,14a,15,16,16a-hexadecahydrocyclopropa[e]pyrrolo[1,2-a][1,4]diazacyclopentadecin-6-yl)carbamate]",20.4 ± 0.9,5.66 ± 0.5,414 ± 23
"COc1ccc2nc(C(F)(F)F)c(O[C@@H]3C[C@H]4C(=O)N[C@]5(C(=O)NS(=O)(=O)C6(C)CC6)C[C@H]5/C=C\CCCCC[C@H](NC(=O)OCC5(C)CC5(F)F)C(=O)N4C3)nc2c1 (stereo partly drawn) [NR02-56, (2,2-Difluoro-1-methylcyclopropyl)methyl ((2R,6S,13aS,14aR,16aS,Z)-2-((7-methoxy-3-(trifluoromethyl)quinoxalin-2-yl)oxy)-14a-(((1-methylcyclopropyl)sulfonyl)carbamoyl)-5,16-dioxo-1,2,3,5,6,7,8,9,10,11,13a,14,14a,15,16,16a-hexadecahydrocyclopropa[e]pyrrolo[1,2-a][1,4]diazacyclopentadecin-6-yl)carbamate]",7.1 ± 0.9,2.1 ± 0.5,336 ± 47
"COc1ccc2nc(C)c(O[C@@H]3C[C@H]4C(=O)N[C@]5(C(=O)NS(=O)(=O)C6(C)CC6)C[C@H]5/C=C\CCCCC[C@H](NC(=O)OCC5(C)CC5(F)F)C(=O)N4C3)nc2c1 (stereo partly drawn) [NR02-55, (2,2-Difluoro-1-methylcyclopropyl)methyl ((2R,6S,13aS,14aR,16aS,Z)-2-((7-methoxy-3-methylquinoxalin-2-yl)oxy)-14a-(((1-methylcyclopropyl)sulfonyl)carbamoyl)-5,16-dioxo-1,2,3,5,6,7,8,9,10,11,13a,14,14a,15,16,16a-hexadecahydrocyclopropa[e]pyrrolo[1,2-a][1,4]diazacyclopentadecin-6-yl)carbamate]",4.7 ± 0.5,3.1 ± 0.3,100 ± 12
"COc1ccc2nc(C(F)(F)F)c(O[C@@H]3C[C@H]4C(=O)N[C@]5(C(=O)NS(=O)(=O)C6(C)CC6)C[C@H]5/C=C\CCCCC[C@H](NC(=O)O[C@@H](C)C(F)(F)F)C(=O)N4C3)nc2c1 [NR02-32, (S)-1,1,1-Trifluoropropan-2-yl ((2R,6S,13aS,14aR,16aS,Z)-2-((7-methoxy-3-(trifluoromethyl)quinoxalin-2-yl)oxy)-14a-(((1-methylcyclopropyl)sulfonyl)carbamoyl)-5,16-dioxo-1,2,3,5,6,7,8,9,10,11,13a,14,14a,15,16,16a-hexadecahydrocyclopropa[e]pyrrolo[1,2-a][1,4]diazacyclopentadecin-6-yl)carbamate]",44.6 ± 7.3,7.69 ± 0.89,580 ± 50
"COc1ccc2nc(C)c(O[C@@H]3C[C@H]4C(=O)N[C@]5(C(=O)NS(=O)(=O)C6(C)CC6)C[C@H]5/C=C\CCCCC[C@H](NC(=O)OC5(C(F)(F)F)CCC5)C(=O)N4C3)nc2c1 [NR02-58, 1-(Trifluoromethyl)cyclobutyl ((2R,6S,13aS,14aR,16aS,Z)-2-((7-methoxy-3-methylquinoxalin-2-yl)oxy)-14a-(((1-methylcyclopropyl)sulfonyl)carbamoyl)-5,16-dioxo-1,2,3,5,6,7,8,9,10,11,13a,14,14a,15,16,16a-hexadecahydrocyclopropa[e]pyrrolo[1,2-a][1,4]diazacyclopentadecin-6-yl)carbamate]",11.3 ± 2,1.5 ± 0.2,96 ± 17
"COc1ccc2nc(C)c(O[C@@H]3C[C@H]4C(=O)N[C@]5(C(=O)NS(=O)(=O)C6(C)CC6)C[C@H]5/C=C\CCCCC[C@H](NC(=O)OC5(C(F)(F)F)CCCC5)C(=O)N4C3)nc2c1 [NR02-60, 1-(Trifluoromethyl)cyclopentyl ((2R,6S,13aS,14aR,16aS,Z)-2-((7-methoxy-3-methylquinoxalin-2-yl)oxy)-14a-(((1-methylcyclopropyl)sulfonyl)carbamoyl)-5,16-dioxo-1,2,3,5,6,7,8,9,10,11,13a,14,14a,15,16,16a-hexadecahydrocyclopropa[e]pyrrolo [1,2-a][1,4]diazacyclopentadecin-6-yl)carbamate]",8.1 ± 1.5,1.3 ± 0.2,104 ± 7
"COc1ccc2nc(C(F)(F)F)c(O[C@@H]3C[C@H]4C(=O)N[C@]5(C(=O)NS(=O)(=O)C6(C)CC6)C[C@H]5/C=C\CCCCC[C@H](NC(=O)O[C@@H](C)C5CC5)C(=O)N4C3)nc2c1 [NR02-33, (S)-1-Cyclopropylethyl ((2R,6S,13aS,14aR,16aS,Z)-2-((7-methoxy-3-(trifluoromethyl)quinoxalin-2-yl)oxy)-14a-(((1-methylcyclopropyl)sulfonyl)carbamoyl)-5,16-dioxo-1,2,3,5,6,7,8,9,10,11,13a,14,14a,15,16,16a-hexadecahydrocyclopropa[e]pyrrolo[1,2-a][1,4]diazacyclopentadecin-6-yl)carbamate]",54.4 ± 3.7,10.4 ± 0.94,412 ± 21
"COc1ccc2nc(C(F)(F)F)c(O[C@@H]3C[C@H]4C(=O)N[C@]5(C(=O)NS(=O)(=O)C6(C)CC6)C[C@H]5/C=C\CCCCC[C@H](NC(=O)OC5(C(F)(F)F)CCC5)C(=O)N4C3)nc2c1 [NR02-59, 1-(Trifluoromethyl)cyclobutyl ((2R,6S,13aS,14aR,16aS,Z)-2-((7-methoxy-3-(trifluoromethyl)quinoxalin-2-yl)oxy)-14a-(((1-methylcyclopropyl)sulfonyl)carbamoyl)-5,16-dioxo-1,2,3,5,6,7,8,9,10,11,13a,14,14a,15,16,16a-hexadecahydrocyclopropa[e]pyrrolo[1,2-a][1,4]diazacyclopentadecin-6-yl)carbamate]",12.2 ± 1.1,2 ± 0.2,133 ± 25
"COc1ccc2nc(C(F)(F)F)c(O[C@@H]3C[C@H]4C(=O)N[C@]5(C(=O)NS(=O)(=O)C6(C)CC6)C[C@H]5/C=C\CCCCC[C@H](NC(=O)OC5CC5)C(=O)N4C3)nc2c1 [NR02-46, Cyclopropyl ((2R,6S,13aS,14aR,16aS,Z)-2-((7-methoxy-3-(trifluoromethyl)quinoxalin-2-yl)oxy)-14a-(((1-methylcyclopropyl)sulfonyl)carbamoyl)-5,16-dioxo-1,2,3,5,6,7,8,9,10,11,13a,14,14a,15,16,16a-hexadecahydrocyclopropa[e]pyrrolo[1,2-a][1,4]diazacyclopentadecin-6-yl)carbamate]",67.5 ± 3.9,13.6 ± 0.9,522 ± 25
"COc1ccc2nc(C(F)(F)F)c(O[C@@H]3C[C@H]4C(=O)N[C@]5(C(=O)NS(=O)(=O)C6(C)CC6)C[C@H]5/C=C\CCCCC[C@H](NC(=O)OC5(C)CCC5)C(=O)N4C3)nc2c1 [NR02-62, 1-Methylcyclobutyl ((2R,6S,13aS,14aR,16aS,Z)-2-((7-methoxy-3-(trifluoromethyl)quinoxalin-2-yl)oxy)-14a-(((1-methylcyclopropyl)sulfonyl)carbamoyl)-5,16-dioxo-1,2,3,5,6,7,8,9,10,11,13a,14,14a,15,16,16a-hexadecahydrocyclopropa[e]pyrrolo[1,2-a][1,4]diazacyclopentadecin-6-yl)carbamate]",20.7 ± 0.7,4.86 ± 0.39,283 ± 21
